Experimental data: PMC9851200, “Multiparameter phenotypic screening for endogenous TFEB and TFE3 translocation identifies novel chemical series modulating lysosome function” (Autophagy, 2022)

What was measured:
[1] = target: CIT (Homo sapiens, UniProt O14578); conditions: cited from earlier work
[2] = target: T1, PRKD1 (Homo sapiens, UniProt Q15139); conditions: cited from earlier work
T1 sequence (Q15139 1-912): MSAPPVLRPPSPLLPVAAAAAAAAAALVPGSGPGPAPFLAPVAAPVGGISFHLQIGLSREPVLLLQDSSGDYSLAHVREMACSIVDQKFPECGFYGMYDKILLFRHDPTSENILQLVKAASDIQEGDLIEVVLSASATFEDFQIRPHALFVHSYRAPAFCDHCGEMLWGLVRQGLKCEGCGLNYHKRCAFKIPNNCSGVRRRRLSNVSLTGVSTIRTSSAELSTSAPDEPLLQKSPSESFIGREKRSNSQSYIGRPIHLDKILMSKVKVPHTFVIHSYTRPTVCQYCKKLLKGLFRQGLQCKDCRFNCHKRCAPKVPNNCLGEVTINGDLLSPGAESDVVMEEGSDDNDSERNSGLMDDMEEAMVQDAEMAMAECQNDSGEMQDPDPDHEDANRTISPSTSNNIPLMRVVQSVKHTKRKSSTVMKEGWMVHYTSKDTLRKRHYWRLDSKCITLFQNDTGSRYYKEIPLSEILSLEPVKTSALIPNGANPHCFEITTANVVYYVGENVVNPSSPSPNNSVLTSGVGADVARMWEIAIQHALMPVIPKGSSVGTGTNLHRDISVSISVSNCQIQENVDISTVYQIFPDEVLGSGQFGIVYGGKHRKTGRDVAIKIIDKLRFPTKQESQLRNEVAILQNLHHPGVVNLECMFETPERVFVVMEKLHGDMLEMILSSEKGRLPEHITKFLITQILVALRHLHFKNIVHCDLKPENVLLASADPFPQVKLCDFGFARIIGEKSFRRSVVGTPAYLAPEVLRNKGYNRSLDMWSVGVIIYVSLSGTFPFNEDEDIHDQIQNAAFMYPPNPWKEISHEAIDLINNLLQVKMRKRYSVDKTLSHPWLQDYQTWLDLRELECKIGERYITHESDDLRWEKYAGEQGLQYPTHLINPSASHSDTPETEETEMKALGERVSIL

[3] = target: T2, TGFBR2 (Homo sapiens, UniProt P37173); conditions: cited from earlier work
[4] = target: MAPK9/JNK2 (Homo sapiens, UniProt P45984); conditions: cited from earlier work
[5] = target: STK10/LOK (Homo sapiens, UniProt O94804); conditions: cited from earlier work
[6] = tested on: SH-SY5Y cells; assay: Nuclear count from microscopy images (cellular growth and toxicity); conditions: for Nuclear Count: PKIS2 primary screening
[7] = target: T3, BMPR1B (Homo sapiens, UniProt O00238); conditions: cited from earlier work
[8] = tested on: ALK5/TGFBR1; conditions: cited from earlier work
[9] = target: MINK1/MINK (Homo sapiens, UniProt Q8N4C8); conditions: cited from earlier work
[10] = tested on: SH-SY5Y cells; assay: AK (adenylate kinase) release ToxiLight cytotoxicity assay; conditions: for AK: PKIS2 primary screening
Experimental: Total cell lysis with 5 µL 5% Triton-X 100 (Sigma-Aldrich, T8787) is used as a positive control for the assay and toxicity is expressed as a percentage of luminescence under DMSO conditions.

[11] = target: MAPK10/JNK3 (Homo sapiens, UniProt P53779); conditions: cited from earlier work
[12] = target: MTOR (Homo sapiens, UniProt P42345); conditions: cited from earlier work
[13] = target: T4, TGFBR1 (Homo sapiens, UniProt P36897); conditions: cited from earlier work
T4 sequence (P36897 34-503): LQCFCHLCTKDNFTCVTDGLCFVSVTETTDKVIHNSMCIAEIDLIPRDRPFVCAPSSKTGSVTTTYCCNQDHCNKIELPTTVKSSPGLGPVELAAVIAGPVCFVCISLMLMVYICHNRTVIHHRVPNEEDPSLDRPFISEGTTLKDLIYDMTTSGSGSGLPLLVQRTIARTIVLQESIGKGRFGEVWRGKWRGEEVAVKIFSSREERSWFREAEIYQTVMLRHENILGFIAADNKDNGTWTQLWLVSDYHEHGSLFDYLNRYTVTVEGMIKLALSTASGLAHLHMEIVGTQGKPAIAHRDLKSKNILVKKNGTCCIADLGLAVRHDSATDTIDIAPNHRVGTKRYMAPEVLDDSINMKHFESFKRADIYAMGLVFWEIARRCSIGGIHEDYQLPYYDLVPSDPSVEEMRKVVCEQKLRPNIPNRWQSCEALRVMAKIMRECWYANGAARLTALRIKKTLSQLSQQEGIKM

[14] = target: CSNK1D (Homo sapiens, UniProt P48730); conditions: cited from earlier work
[15] = tested on: TFEB or TFE3; assay: EC50 line in the head of Table S5 (cellular activity of the analogs, assay not given); type: cell-based; conditions: assay not named, unit printed only in the first two cells
Experimental: Figure S5. Activity of quinazoline analogs. […] Compounds were screen at 24-h treatment time up to 5 µM concentration. Data for each compound is represented on single graphs with their structures shown. n=1 for all above assays, mean±s.d. (B) Representative western blot of TFEB levels following treatment of compounds followed by fractionation into cytoplasmic (C) and nuclear (N) compartments. Successful fractionation represented by enrichment of GAPDH in the cytoplasmic fraction and LMNA (lamin A/C) in the nuclear compartment. (C) The levels of nuclear/cytoplasmic TFEB were quantified and presented as a ratio. A paired one-way ANOVA with a Holm-Šídák's multiple comparisons test was performed relative to DMSO for comparison between each compound treatments (n=3).

[16] = target: kinases (KINOMEscan panel) (Homo sapiens, UniProt P29317); type: binding; conditions: EPHA2; NEW KINOMEscan
[17] = target: kinases (KINOMEscan panel) (Homo sapiens, UniProt P50750); type: binding; conditions: kinase CDK9; NEW KINOMEscan
[18] = target: T3, BMPR1B; assay: KINOMEscan BMPR1B; type: binding; conditions: NEW KINOMEscan
[19] = target: T1, PRKD1; assay: KINOMEscan PRKD1; type: binding; conditions: NEW KINOMEscan
[20] = target: PKNB(M.tuberculosis) (Mycobacterium tuberculosis, UniProt P9WI81); type: binding
[21] = target: T2, TGFBR2; assay: KINOMEscan TGFBR2; type: binding; conditions: NEW KINOMEscan

T2 sequence (P37173 23-567): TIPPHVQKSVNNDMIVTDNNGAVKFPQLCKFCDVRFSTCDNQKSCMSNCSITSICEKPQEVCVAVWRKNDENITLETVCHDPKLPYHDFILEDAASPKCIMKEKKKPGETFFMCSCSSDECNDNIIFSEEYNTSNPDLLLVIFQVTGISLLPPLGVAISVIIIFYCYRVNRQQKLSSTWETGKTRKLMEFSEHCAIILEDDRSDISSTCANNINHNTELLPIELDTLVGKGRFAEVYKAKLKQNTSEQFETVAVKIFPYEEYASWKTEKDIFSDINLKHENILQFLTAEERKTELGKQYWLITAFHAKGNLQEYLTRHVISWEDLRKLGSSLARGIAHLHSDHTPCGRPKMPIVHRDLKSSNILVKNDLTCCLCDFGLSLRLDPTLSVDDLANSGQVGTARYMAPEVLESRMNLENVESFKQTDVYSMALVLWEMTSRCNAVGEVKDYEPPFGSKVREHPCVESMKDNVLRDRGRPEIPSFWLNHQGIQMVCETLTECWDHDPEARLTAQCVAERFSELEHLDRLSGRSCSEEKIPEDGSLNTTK
T3 sequence (O00238 14-502): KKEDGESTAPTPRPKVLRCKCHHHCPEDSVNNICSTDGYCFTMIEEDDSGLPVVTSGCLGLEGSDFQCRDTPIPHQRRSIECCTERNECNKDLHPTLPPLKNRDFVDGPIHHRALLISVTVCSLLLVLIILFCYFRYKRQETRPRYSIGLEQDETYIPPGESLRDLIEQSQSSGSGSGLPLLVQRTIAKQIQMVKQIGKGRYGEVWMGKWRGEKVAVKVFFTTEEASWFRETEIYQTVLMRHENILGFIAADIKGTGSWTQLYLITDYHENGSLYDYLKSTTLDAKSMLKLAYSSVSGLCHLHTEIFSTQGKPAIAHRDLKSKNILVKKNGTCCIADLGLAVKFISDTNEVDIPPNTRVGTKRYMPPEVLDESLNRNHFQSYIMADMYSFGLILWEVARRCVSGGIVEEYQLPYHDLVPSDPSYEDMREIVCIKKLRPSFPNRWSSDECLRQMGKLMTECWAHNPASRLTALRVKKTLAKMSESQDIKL
Sequence of CSNK1D (P48730 whole entry): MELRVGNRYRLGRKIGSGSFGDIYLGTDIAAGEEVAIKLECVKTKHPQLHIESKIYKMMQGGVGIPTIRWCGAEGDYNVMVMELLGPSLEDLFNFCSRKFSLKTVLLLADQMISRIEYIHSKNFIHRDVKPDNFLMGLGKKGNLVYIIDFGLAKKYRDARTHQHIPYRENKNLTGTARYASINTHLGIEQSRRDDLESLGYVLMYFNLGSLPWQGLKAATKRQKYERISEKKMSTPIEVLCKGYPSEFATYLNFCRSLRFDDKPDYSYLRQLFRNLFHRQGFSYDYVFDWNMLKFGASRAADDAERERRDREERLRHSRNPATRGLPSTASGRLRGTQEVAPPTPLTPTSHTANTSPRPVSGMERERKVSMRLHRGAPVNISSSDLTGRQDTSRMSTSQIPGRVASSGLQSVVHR
Sequence of PKNB(M.tuberculosis) (P9WI81 whole entry, looked up): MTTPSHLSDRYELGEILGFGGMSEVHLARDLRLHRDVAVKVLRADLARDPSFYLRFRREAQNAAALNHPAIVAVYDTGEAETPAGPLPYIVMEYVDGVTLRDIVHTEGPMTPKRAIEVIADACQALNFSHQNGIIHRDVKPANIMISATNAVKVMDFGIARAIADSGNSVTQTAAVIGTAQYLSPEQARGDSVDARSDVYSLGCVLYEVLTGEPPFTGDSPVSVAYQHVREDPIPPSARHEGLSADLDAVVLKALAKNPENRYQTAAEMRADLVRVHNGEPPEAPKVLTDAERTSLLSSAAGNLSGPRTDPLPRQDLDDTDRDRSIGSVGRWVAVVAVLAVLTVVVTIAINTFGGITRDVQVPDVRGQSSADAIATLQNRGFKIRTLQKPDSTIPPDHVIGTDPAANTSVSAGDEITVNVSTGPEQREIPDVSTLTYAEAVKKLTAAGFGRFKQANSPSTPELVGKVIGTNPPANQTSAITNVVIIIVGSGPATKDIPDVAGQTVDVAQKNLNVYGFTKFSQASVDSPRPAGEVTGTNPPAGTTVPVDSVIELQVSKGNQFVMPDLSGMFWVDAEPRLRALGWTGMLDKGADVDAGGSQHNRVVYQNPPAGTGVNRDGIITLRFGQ
Sequence of MINK1/MINK (Q8N4C8 whole entry): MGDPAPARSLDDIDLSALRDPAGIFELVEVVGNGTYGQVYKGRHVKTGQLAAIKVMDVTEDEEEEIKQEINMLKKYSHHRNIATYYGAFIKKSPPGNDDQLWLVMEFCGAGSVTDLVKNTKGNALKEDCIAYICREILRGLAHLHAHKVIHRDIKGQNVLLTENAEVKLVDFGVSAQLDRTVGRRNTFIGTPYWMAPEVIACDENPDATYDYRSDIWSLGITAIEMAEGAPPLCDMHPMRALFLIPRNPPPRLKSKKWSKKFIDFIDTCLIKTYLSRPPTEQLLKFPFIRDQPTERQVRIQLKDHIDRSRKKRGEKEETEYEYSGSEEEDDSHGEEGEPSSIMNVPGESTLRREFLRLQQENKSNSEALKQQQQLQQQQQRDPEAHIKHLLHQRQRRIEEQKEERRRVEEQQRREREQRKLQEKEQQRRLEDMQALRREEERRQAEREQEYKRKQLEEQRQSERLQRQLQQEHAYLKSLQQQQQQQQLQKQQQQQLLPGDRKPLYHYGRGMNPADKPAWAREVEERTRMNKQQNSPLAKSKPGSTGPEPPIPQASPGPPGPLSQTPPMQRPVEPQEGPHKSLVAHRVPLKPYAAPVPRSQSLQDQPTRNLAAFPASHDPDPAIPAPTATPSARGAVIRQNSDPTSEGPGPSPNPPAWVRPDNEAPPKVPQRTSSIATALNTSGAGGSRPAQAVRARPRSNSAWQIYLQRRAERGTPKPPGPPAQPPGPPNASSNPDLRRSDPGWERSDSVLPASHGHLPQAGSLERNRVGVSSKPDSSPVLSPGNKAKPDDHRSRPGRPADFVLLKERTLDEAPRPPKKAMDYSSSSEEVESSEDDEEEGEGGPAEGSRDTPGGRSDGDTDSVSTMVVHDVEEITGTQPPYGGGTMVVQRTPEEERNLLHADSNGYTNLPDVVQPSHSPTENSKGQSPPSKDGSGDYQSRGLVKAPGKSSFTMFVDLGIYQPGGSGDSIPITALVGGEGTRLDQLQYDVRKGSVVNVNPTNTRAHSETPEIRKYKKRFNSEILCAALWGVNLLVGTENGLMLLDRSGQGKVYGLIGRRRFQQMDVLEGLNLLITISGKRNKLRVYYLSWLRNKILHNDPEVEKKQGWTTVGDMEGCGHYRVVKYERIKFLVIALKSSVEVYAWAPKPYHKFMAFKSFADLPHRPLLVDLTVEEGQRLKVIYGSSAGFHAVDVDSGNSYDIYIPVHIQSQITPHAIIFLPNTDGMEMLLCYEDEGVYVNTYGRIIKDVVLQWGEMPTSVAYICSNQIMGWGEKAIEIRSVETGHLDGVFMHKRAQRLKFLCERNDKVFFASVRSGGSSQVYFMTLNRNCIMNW
Sequence of STK10/LOK (O94804 whole entry): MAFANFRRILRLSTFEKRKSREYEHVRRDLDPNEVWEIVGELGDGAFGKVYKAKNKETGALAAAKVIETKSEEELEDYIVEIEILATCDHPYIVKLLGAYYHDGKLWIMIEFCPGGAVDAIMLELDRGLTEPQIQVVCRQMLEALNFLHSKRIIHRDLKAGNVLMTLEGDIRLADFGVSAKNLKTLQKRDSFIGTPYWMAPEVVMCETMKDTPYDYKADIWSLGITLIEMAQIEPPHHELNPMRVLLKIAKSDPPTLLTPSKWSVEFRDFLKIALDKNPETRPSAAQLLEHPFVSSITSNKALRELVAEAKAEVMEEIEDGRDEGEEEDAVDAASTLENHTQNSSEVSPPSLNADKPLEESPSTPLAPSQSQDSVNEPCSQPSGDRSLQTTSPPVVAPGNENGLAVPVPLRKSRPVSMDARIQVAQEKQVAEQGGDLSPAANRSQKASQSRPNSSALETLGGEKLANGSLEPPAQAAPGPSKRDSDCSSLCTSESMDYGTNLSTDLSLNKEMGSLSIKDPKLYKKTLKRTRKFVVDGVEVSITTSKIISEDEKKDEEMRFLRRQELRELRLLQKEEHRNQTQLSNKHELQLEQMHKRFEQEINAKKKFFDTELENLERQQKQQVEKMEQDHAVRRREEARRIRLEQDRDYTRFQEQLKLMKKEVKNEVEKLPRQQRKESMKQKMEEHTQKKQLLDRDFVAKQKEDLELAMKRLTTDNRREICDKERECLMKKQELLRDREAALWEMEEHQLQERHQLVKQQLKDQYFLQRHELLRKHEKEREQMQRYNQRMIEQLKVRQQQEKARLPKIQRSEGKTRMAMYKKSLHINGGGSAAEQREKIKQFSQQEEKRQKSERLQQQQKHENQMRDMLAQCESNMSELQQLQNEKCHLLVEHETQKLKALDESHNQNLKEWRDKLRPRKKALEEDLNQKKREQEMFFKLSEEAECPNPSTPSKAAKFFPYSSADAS
Sequence of kinases (KINOMEscan panel) (Homo sapiens, UniProt P50750) (P50750 whole entry): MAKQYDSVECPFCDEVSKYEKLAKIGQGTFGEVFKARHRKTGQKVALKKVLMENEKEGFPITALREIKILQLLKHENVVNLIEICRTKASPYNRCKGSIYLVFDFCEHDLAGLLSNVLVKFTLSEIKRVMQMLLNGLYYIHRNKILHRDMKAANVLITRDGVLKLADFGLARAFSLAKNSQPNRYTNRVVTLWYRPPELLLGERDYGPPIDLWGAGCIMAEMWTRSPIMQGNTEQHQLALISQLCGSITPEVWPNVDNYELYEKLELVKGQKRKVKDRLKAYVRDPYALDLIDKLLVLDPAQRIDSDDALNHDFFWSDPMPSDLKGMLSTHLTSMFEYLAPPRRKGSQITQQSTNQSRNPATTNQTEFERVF

SMILES | KINOMEscan binding CIT [1] [%] | KINOMEscan binding PRKD1 [2] [%] | KINOMEscan binding TGFBR2 [3] [%] | KINOMEscan binding MAPK9/JNK2 [4] [%] | KINOMEscan binding STK10/LOK [5] [%] | Nuclear Count [6] | KINOMEscan binding BMPR1B [7] [%] | TGFBR1 binding [8] [µM] | KINOMEscan binding MINK1/MINK [9] [%] | AK [10] | KINOMEscan binding MAPK10/JNK3 [11] [%] | KINOMEscan binding MTOR [12] [%] | KINOMEscan binding TGFBR1 [13] [%] | KINOMEscan binding CSNK1D [14] [%] | EC50 [15] [µM] | KINOMEscan EPHA2 [16] | KINOMEscan CDK9 [17] | KINOMEscan BMPR1B [18] | KINOMEscan PRKD1 [19] | KINOMEscan PKNB(M.tuberculosis) [20] | also measured
Cc1cccc(-c2nc(C)cc(Nc3ccncc3)n2)n1 [GSK257997] | 23 | 78 | 4 | 43 | 0 | 128.02 | 0 | 0.025 | 6 | 66.29 | 32 | 13 | 100 | 43 | – | – | – | – | – | – | –
Cc1cccc(-c2nc(Nc3ccc4nn[nH]c4c3)c3ccccc3n2)n1 [GW867587] | 15 | 94.2 | 0 | 0 | 0 | 123.89 | 0 | 0.59 | 0 | 54.27 | 0 | 5 | 32 | 4 | – | – | – | – | – | – | –
Cc1cccc(-c2nc(Nc3ccc4ncsc4c3)c3ccccc3n2)n1 [NK140] | – | – | – | – | – | – | – | – | – | – | – | – | – | – | 0.65 | – | – | – | – | – | Nuclear count (in words) ([6]; SH-SY5Y, 48 h treatment): small reduction in nuclear count from 0.75 µM; AK signal (in words) ([10]; SH-SY5Y, 24 h treatment): reduced; Cellular toxicity (AK release and nuclear count, in words) ([10]; SH-SY5Y, 24 h treatment): no increases in DQ Red BSA intensity or cellular toxicity; AK release (in words) ([10]; SH-SY5Y, 48 h treatment): without increases in AK
Cc1cccc(-c2nc(Nc3ccc4nn(C)cc4c3)c3ccccc3n2)n1 [NK167] | – | – | – | – | – | – | – | – | – | – | – | – | – | – | 1 | 0 | 8 | 0 | 0 | 12 | KINOMEscan TGFBR2 [21]: 0
Cc1cccc(-c2nc(N(C)c3ccc4ncsc4c3)c3ccccc3n2)n1 [NK-161] | – | – | – | – | – | – | – | – | – | – | – | – | – | – | 1.1 | 2 | 4 | 8 | 46 | 9 | KINOMEscan TGFBR2 [21]: 0
